Laboratory results reported in PubChem BioAssay (NCI).
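The concentration for 50% growth inhibition is given as GI50. The concentration for full growth arrest is given as TGI.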

Tests used:
Test in all cases: growth of human tumour cells (NCI), 384-well format
SK-MEL-2 melanoma = tested on: SK-MEL-2 melanoma
CCRF-CEM leukemia = tested on: CCRF-CEM leukemia
MCF7 breast = tested on: MCF7 breast
PC-3 prostate = tested on: PC-3 prostate
SNB-75 CNS = tested on: SNB-75 CNS
UACC-62 melanoma = tested on: UACC-62 melanoma
SF-539 CNS = tested on: SF-539 CNS
MOLT-4 leukemia = tested on: MOLT-4 leukemia
NCI/ADR-RES ovarian = tested on: NCI/ADR-RES ovarian
IGROV1 ovarian = tested on: IGROV1 ovarian
MDA-MB-468 breast = tested on: MDA-MB-468 breast
HS 578T breast = tested on: HS 578T breast
BT-549 breast = tested on: BT-549 breast
MDA-MB-435 melanoma = tested on: MDA-MB-435 melanoma
SNB-19 CNS = tested on: SNB-19 CNS
HT29 colon = tested on: HT29 colon
786-0 renal = tested on: 786-0 renal
UO-31 renal = tested on: UO-31 renal
SK-OV-3 ovarian = tested on: SK-OV-3 ovarian
ACHN renal = tested on: ACHN renal
SK-MEL-28 melanoma = tested on: SK-MEL-28 melanoma
EKVX NSCLC = tested on: EKVX NSCLC
LOX IMVI melanoma = tested on: LOX IMVI melanoma
HCT-116 colon = tested on: HCT-116 colon
RXF 393 renal = tested on: RXF 393 renal
T-47D breast = tested on: T-47D breast
MDA-MB-231 breast = tested on: MDA-MB-231 breast
A498 renal = tested on: A498 renal
SF-268 CNS = tested on: SF-268 CNS
NCI-H322M lung = tested on: NCI-H322M lung
HOP-62 NSCLC = tested on: HOP-62 NSCLC
HOP-92 NSCLC = tested on: HOP-92 NSCLC
DU-145 prostate = tested on: DU-145 prostate
CAKI-1 renal = tested on: CAKI-1 renal
KM12 colon = tested on: KM12 colon
RPMI-8226 leukemia = tested on: RPMI-8226 leukemia
NCI-H23 lung = tested on: NCI-H23 lung
SN12C renal = tested on: SN12C renal
NCI-H522 lung = tested on: NCI-H522 lung
OVCAR-4 ovarian = tested on: OVCAR-4 ovarian
HCT-15 colon = tested on: HCT-15 colon
NCI-H226 lung = tested on: NCI-H226 lung
M14 melanoma = tested on: M14 melanoma
SF-295 CNS = tested on: SF-295 CNS
SW-620 colon = tested on: SW-620 colon
UACC-257 melanoma = tested on: UACC-257 melanoma
U251 glioblastoma = tested on: U251 glioblastoma
TK-10 renal = tested on: TK-10 renal
K-562 leukemia = tested on: K-562 leukemia
HL-60(TB) leukemia = tested on: HL-60(TB) leukemia
OVCAR-3 ovarian = tested on: OVCAR-3 ovarian
MALME-3M melanoma = tested on: MALME-3M melanoma
A549 NSCLC = tested on: A549 NSCLC
OVCAR-5 ovarian = tested on: OVCAR-5 ovarian
OVCAR-8 ovarian = tested on: OVCAR-8 ovarian

In the case of CC(=O)O[C@]1(C(C)=O)CC[C@H]2[C@@H]3C=C(C)C4=CC(=O)CC[C@]4(C)[C@H]3CC[C@@]21C, the GI50 (SK-MEL-2 melanoma) is reported as over 100 µM, the TGI (SK-MEL-2 melanoma) is reported as over 100 µM and the GI50 (CCRF-CEM leukemia) is reported as 18.6 µM. For the same molecule, the TGI (CCRF-CEM leukemia) was 32.9 µM, the GI50 (MCF7 breast) was over 100 µM and the TGI (MCF7 breast) was over 100 µM. The GI50 (PC-3 prostate) was 74.7 µM, the TGI (PC-3 prostate) was over 100 µM and the GI50 (SNB-75 CNS) was over 100 µM. The TGI (SNB-75 CNS) was over 100 µM, the GI50 (UACC-62 melanoma) was over 100 µM and the TGI (UACC-62 melanoma) was over 100 µM. For the same molecule, the GI50 (SF-539 CNS) was over 100 µM, the TGI (SF-539 CNS) was over 100 µM and the GI50 (MOLT-4 leukemia) was 14.1 µM. For the same molecule, the TGI (MOLT-4 leukemia) was 29.3 µM, the GI50 (NCI/ADR-RES ovarian) was over 100 µM and the TGI (NCI/ADR-RES ovarian) was over 100 µM. The GI50 (IGROV1 ovarian) was over 100 µM, the TGI (IGROV1 ovarian) was over 100 µM and the GI50 (MDA-MB-468 breast) was 44.1 µM. It also gave a TGI (MDA-MB-468 breast) of over 100 µM, a GI50 (HS 578T breast) of over 100 µM and a TGI (HS 578T breast) of over 100 µM. It also gave a GI50 (BT-549 breast) of over 100 µM, a TGI (BT-549 breast) of over 100 µM and a GI50 (MDA-MB-435 melanoma) of over 100 µM. The TGI (MDA-MB-435 melanoma) was over 100 µM, the GI50 (SNB-19 CNS) was over 100 µM and the TGI (SNB-19 CNS) was over 100 µM. For the same molecule, the GI50 (HT29 colon) was over 100 µM, the TGI (HT29 colon) was over 100 µM and the GI50 ([…]-0 renal) was over 100 µM. It also gave a TGI (786-0 renal) of over 100 µM, a GI50 (UO-31 renal) of over 100 µM and a TGI (UO-31 renal) of over 100 µM. For the same molecule, the GI50 (SK-OV-3 ovarian) was over 100 µM, the TGI (SK-OV-3 ovarian) was over 100 µM and the GI50 (ACHN renal) was over 100 µM. It also gave a TGI (ACHN renal) of over 100 µM, a GI50 (SK-MEL-28 melanoma) of over 100 µM and a TGI (SK-MEL-28 melanoma) of over 100 µM. The GI50 (EKVX NSCLC) was over 100 µM, the TGI (EKVX NSCLC) was over 100 µM and the GI50 (LOX IMVI melanoma) was over 100 µM. The TGI (LOX IMVI melanoma) was over 100 µM, the GI50 (HCT-116 colon) was 70.7 µM and the TGI (HCT-116 colon) was over 100 µM. For the same molecule, the GI50 (RXF 393 renal) was over 100 µM, the TGI (RXF 393 renal) was over 100 µM and the GI50 (T-47D breast) was over 100 µM. It also gave a TGI (T-47D breast) of over 100 µM, a GI50 (MDA-MB-231 breast) of over 100 µM and a TGI (MDA-MB-231 breast) of over 100 µM. It also gave a GI50 (A498 renal) of over 100 µM, a TGI (A498 renal) of over 100 µM and a GI50 (SF-268 CNS) of over 100 µM. The TGI (SF-268 CNS) was over 100 µM, the GI50 (NCI-H322M lung) was over 100 µM and the TGI (NCI-H322M lung) was over 100 µM. The GI50 (HOP-62 NSCLC) was over 100 µM, the TGI (HOP-62 NSCLC) was over 100 µM and the GI50 (HOP-92 NSCLC) was over 100 µM. It also gave a TGI (HOP-92 NSCLC) of over 100 µM, a GI50 (DU-145 prostate) of over 100 µM and a TGI (DU-145 prostate) of over 100 µM. It also gave a GI50 (CAKI-1 renal) of over 100 µM, a TGI (CAKI-1 renal) of over 100 µM and a GI50 (KM12 colon) of over 100 µM. It also gave a TGI (KM12 colon) of over 100 µM, a GI50 (RPMI-8226 leukemia) of 11.5 µM and a TGI (RPMI-8226 leukemia) of 28.1 µM. For the same molecule, the GI50 (NCI-H23 lung) was over 100 µM, the TGI (NCI-H23 lung) was over 100 µM and the GI50 (SN12C renal) was over 100 µM. For the same molecule, the TGI (SN12C renal) was over 100 µM, the GI50 (NCI-H522 lung) was over 100 µM and the TGI (NCI-H522 lung) was over 100 µM. For the same molecule, the GI50 (OVCAR-4 ovarian) was over 100 µM, the TGI (OVCAR-4 ovarian) was over 100 µM and the GI50 (HCT-15 colon) was over 100 µM. It also gave a TGI (HCT-15 colon) of over 100 µM, a GI50 (NCI-H226 lung) of over 100 µM and a TGI (NCI-H226 lung) of over 100 µM. It also gave a GI50 (M14 melanoma) of 76.3 µM, a TGI (M14 melanoma) of over 100 µM and a GI50 (SF-295 CNS) of over 100 µM. The TGI (SF-295 CNS) was over 100 µM, the GI50 (SW-620 colon) was over 100 µM and the TGI (SW-620 colon) was over 100 µM. It also gave a GI50 (UACC-257 melanoma) of over 100 µM, a TGI (UACC-257 melanoma) of over 100 µM and a GI50 (U251 glioblastoma) of over 100 µM. The TGI (U251 glioblastoma) was over 100 µM, the GI50 (TK-10 renal) was over 100 µM and the TGI (TK-10 renal) was over 100 µM. The GI50 (K-562 leukemia) was 20.5 µM, the TGI (K-562 leukemia) was 41.7 µM and the GI50 (HL-60(TB) leukemia) was 10.5 µM. For the same molecule, the TGI (HL-60(TB) leukemia) was 22.5 µM, the GI50 (OVCAR-3 ovarian) was over 100 µM and the TGI (OVCAR-3 ovarian) was over 100 µM. For the same molecule, the GI50 (MALME-3M melanoma) was over 100 µM, the TGI (MALME-3M melanoma) was over 100 µM and the GI50 (A549 NSCLC) was over 100 µM. The TGI (A549 NSCLC) was over 100 µM, the GI50 (OVCAR-5 ovarian) was over 100 µM and the TGI (OVCAR-5 ovarian) was over 100 µM. The GI50 (OVCAR-8 ovarian) was over 100 µM and the TGI (OVCAR-8 ovarian) was over 100 µM.
